The values that follow come from patent publication US10039839B2, “Compounds that participate in cooperative binding and uses thereof” (Warp Drive Bio, Inc., priority 2015, dated 2018).

Read-outs that look alike come from different tables or passages of the source. Square brackets hold non-standard residues; d marks the D form. Peptide text beside a SMILES is read from it. MeBmt = C/C=C/C[C@@H](C)[C@@H](O)[C@H](NC)C(=O)O; NMeY = CN[C@@H](Cc1ccc(O)cc1)C(=O)O; NMeF = CN[C@@H](Cc1ccccc1)C(=O)O; NMeL = CN[C@@H](CC(C)C)C(=O)O; NMeNva = CCC[C@H](NC)C(=O)O; NMeV = CN[C@H](C(=O)O)C(C)C; NMeA = CN[C@@H](C)C(=O)O; dNMeA = CN[C@H](C)C(=O)O; Abu = CC[C@H](N)C(=O)O; Sar = CNCC(=O)O

The test system of assay [1] is HeLa-FKBP12 cells. As to the kind of experiment: Biosensor cell permeability assay, FKBP binding compounds. Format: cell-based. Particulars: 72 hrs. On the procedure:
This protocol utilizes a modified FKBP or cyclophilin destabilizing mutant to determine the bioactivity of FKBP binding compounds or cyclophilin binding compounds in whole cell assay.
Plate HeLa-FKBP12 cells (for FKBP binding compounds) or HeLa-Cyclophilin A cells (for cyclophilin binding compounds) and seed overnight at 5 k/well (approximately ˜18 hrs.). Using a multi-channel pipet, take out the old media and add ˜125 ul of new media with compounds. Compounds are diluted using DMEM without Phenol Red, 10% FBS, 1× Sodium Pyruvate, 1× Glutamax. Add 125 ul of media with compound per well. Cells are treated with compounds at concentration: 30, 10, 3.33, 1.11, 0.37, 0.12, 0.04 and 0.013 uM. Time points are taken at 72 hrs and plate read using plate reader with excitation/emission: 575/620.
Cell binding/permeability is calculated in fold-change (Total RFU of treated samples/total RFU of DMSO treated samples or total RFU above background (Total RFU minus total RFU of DMSO treated samples).

Assay [2] concerns the target T1, FKBP12 (Homo sapiens, UniProt P62942). As to the kind of experiment: AlphaLISA: inhibition of binding of biotinylated FK506 to FLAG tagged FKBP12. The arrangement: made in house. On the procedure:
This protocol utilizes Perkin Elmers AlphaLISA technology platform to detect FKBP binders by measuring the inhibition of binding of biotinylated FK506 to FLAG tagged FKBP12.
Add 20 uL of 12.5 nM FKBP-FLAG working stock to each well of the 96-well plate. Add 1 uL of test compound (100% DMSO) to each well of the plate using the Janus MTD head and P20 tips (except control wells). Add 1 uL of DMSO to negative control wells and 1 uL of 50 uM FK506 solution to positive control wells. In the dark, add 20 uL of combined Donor/Acceptor beads to each well. Incubate in the dark for 30 minutes at room temperature. In the dark, add 10 uL of 5 nM biotinylated FK506 working stock to each well. Incubate in the dark for 60 minutes at room temperature. Protect plate from light until reading on Biotek Synergy2 Plate Reader; Alphalisa 96-well protocol (680 excitation/615 emission).

The target of assay [3] is T1, FKBP12.
Description: This protocol utilizes Surface Plasmon Resonance (SPR) as a method to determine kinetics (KD, Ka, Kd) for the binding of compound (analyte) to immobilized FKBP12 (ligand).
Experiments are performed at 25° C. Stock solution of 12×HIS tagged FKBP12 is diluted to 100 nM in assay buffer (1% DMSO final). Approximately 500-600 RU of FKBP12 is immobilized on one of two flow cells of an activated NTA chip. The second flow cell is not activated as a reference for non-specific interaction of the analyte to the sensor chip. Various concentrations of compound (1 nM-1 μM range), serially diluted into the same assay buffer (1% DMSO final), are injected onto the FKBP12 surface and reference surface at a flow rate of 10 μl/min. The surface is regenerated between analyte injections with 350 mM EDTA.
The BiaEvaluation software program is used for data fitting. All data is reference subtracted against both the reference flow cell and a buffer injection. For kinetic analyses, data is locally fit to a 1:1 interaction model.
Experiments are performed at 25° C. Stock solution of 12×HIS tagged FKBP12 is diluted to 100 nM in assay buffer (1% DMSO final). Approximately 500-600 RU of FKBP12 is immobilized on one of two flow cells of an activated NTA chip. The second flow cell is not activated as a reference for non-specific interaction of the analyte to the sensor chip.
For assay [4], the target named is T2, Cyclophilin A (Homo sapiens, UniProt P62937).
T2 construct: made in house
Nature of the assay: biochemical. Format: binding. On the procedure: This protocol utilizes Perkin Elmers AlphaLISA technology platform to detect cyclosporine analogues by measuring the inhibition of binding of biotinylated Cyclosporin A to FLAG tagged Cyclophilin A.
Add 20 uL of 6 nM Biotinylated CsA working stock to each well of the 96-well plate. Add 1 uL of test compound (100% DMSO) to each well of the plate using the Janus MTD head and P20 tips (except control wells). Add 1 uL of DMSO to negative control wells and 1 uL of 500 uM Cyclosporin A solution to positive control wells. In the dark, add 20 uL of combined Donor/Acceptor beads to each well. Incubate in the dark for 30 minutes at room temperature. […] Incubate in the dark for 60 minutes at room temperature.

T1 sequence (P62942 whole entry, species assumed): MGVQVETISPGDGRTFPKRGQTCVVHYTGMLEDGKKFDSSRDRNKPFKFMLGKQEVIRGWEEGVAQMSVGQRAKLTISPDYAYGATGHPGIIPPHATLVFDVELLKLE
T2 sequence (P62937 whole entry, species assumed): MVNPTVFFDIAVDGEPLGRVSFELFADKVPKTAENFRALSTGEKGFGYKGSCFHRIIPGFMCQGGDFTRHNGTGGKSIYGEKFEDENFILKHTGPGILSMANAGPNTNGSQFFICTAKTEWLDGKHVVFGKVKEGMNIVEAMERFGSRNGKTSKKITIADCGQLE

Take `CC(=C\C1C=CC(O)C(O)C1)/C=C(\C)C1CC(O)CC1C(C)(O)/C=C/C(O)C/C=C/CC(C)C1OC(O)(CC(=O)N2CCCCC2C(=O)O)C(C)CC1C` (centres unmarked) [F23]: the values for the IC50 in assay [1] and in assay [2] were greater than 1 µM and 4.69 µM, respectively.

What is called Kd is the free concentration of one partner at which half of the binding sites on the other are occupied at equilibrium, for simple one-to-one binding. Higher therefore signals weaker binding. Regarding `COC1C=C(/C=C/C2OC(=O)C3CCCCN3C(=O)C3(O)OC(CCC(C)C3=O)C(C)C3CC4OC(CC(O)C2C)(O3)C(C)CC4C)CCC1O` (centres unmarked) [F7], binding in assay [3] was characterised by a dissociation constant (Kd) of 0.12 µM. For the same compound, the IC50 in assay [2] came out at 0.026 µM.

For the compound `C/C1=C\CC2OC(O)(C(=O)C(=O)N3CCCCC3C(=O)OC(C(C)CC3CCC(O)C(O)C3)CCC/C=C/C1)C(C)CC2C` (centres unmarked) [F17], the IC50 was less than 1 µM in assay [1] and 0.00026 µM in assay [2]. This compound also came in with a Kd in assay [3] of 0.0002 µM.

Turning to `COC1C=C(/C=C/C2OC(=O)C3CCCCN3C(=O)C(=O)C3(O)OC(CCC3C)C(C)C3CC4OC(CC(O)C2C)(O3)C(C)CC4C)CCC1O` (centres unmarked) [F8], the dissociation constant Kd in assay [3] came to 0.066 µM. The IC50 in assay [2] turned out to be 0.0106 µM.

In turn, `CC[C@H](Cc1cccc(O)c1)[C@@H]1/C=C/C/C=C/C[C@@H](C)[C@H](O)[C@@H](C)[C@@H]2CC[C@@H](C)C(=O)C(O)(O2)C(=O)N2CCCC[C@H]2C(=O)O1` [F20] displayed an IC50 in assay [1] of less than 1 µM.

With `CCC(/C=C(\C)C(O)CCC(C)/C=C/C(O)C(C)C1CCC(C)C(O)(C(=O)C(=O)N2CCCCC2C(=O)O)O1)C/C(C)=C/C1=CC(O)C(O)C=C1` (centres unmarked) [F14], the results for the IC50 in assay [1] and in assay [2] were greater than 1 µM and 1.8 µM, respectively.

In assay [1], `CC[C@H](Cc1ccccc1)[C@@H]1/C=C/C/C=C/C[C@@H](C)[C@H](O)[C@@H](C)[C@@H]2CC[C@@H](C)C(=O)C(O)(O2)C(=O)N2CCC[C@H]2C(=O)O1` [F4] yielded an IC50 of less than 1 µM.

Consider `CCC(/C=C(\C)C(O)CCC(C)/C=C/C(O)C(C)C1CCC(C)C(O)(C(=O)C(=O)N2CCCCC2C(=O)O)O1)C/C(C)=C/c1ccc(O)c(O)c1` (centres unmarked) [F18], for which the figures for the IC50 in assay [1] and in assay [2] were less than 1 µM and 0.229 µM, respectively.

On to `CC[C@H](Cc1ccccc1)[C@@H]1/C=C/C=C/CC[C@@H](C)C(=O)[C@@H](C)[C@@H]2CC[C@@H](C)[C@@](O)(O2)C(=O)C(=O)N2CCCC[C@H]2C(=O)O1` [F22], for which the IC50 in assay [1] is greater than 1 µM.

For the compound `C/C=C/C[C@@H](C)[C@@H](O)[C@H]1C(=O)N[C@@H](CC)C(=O)N(C)CC(=O)N(C)[C@@H](Cc2ccccc2)C(=O)N[C@@H](C(C)C)C(=O)N(C)CC(=O)N[C@@H](C)C(=O)N[C@H](C)C(=O)N(C)[C@@H](CC(C)C)C(=O)N(C)[C@@H](CC(C)C)C(=O)N(C)[C@@H](C(C)C)C(=O)N1C` [C28] (cyclo([MeBmt][Abu][Sar][NMeF]V[Sar]A[dA][NMeL][NMeL][NMeV])), the “% inhibition of CsA binding to Cyclophilin A” value (shortened to “% inhibition of CsA binding”) in assay [4] was 98.94%.

For `COC1CC(CC(C)C2CCC/C=C/C/C(C)=C/CC3OC(O)(C(=O)C(=O)N4CCCCC4C(=O)O2)C(C)CC3C)CCC1O` (centres unmarked) [F19], the results for the IC50 in assay [1] and in assay [2] were less than 1 µM and 0.00022 µM, respectively.

On to `CC1=C\CC(O)CC(/C(C)=C/C(C)=C/C2C=CC(O)C(O)C2)OC(=O)C2CCCCN2C(=O)CC2(O)OC(C(C)C/C=C/CC(O)\C=C\1)C(C)CC2C` (centres unmarked) [F6], for which the IC50 in assay [1] is less than 1 µM; in assay [2] it was 0.06 µM. The compound further came in with a Kd in assay [3] of 0.141 µM.

For the compound `C/C=C/C[C@@H](C)[C@@H](O)[C@H]1C(=O)N[C@@H](CC)C(=O)N(C)CC(=O)N(C)[C@@H](Cc2ccc(O)cc2)C(=O)N[C@@H](C(C)C)C(=O)N(C)[C@@H](CC(C)C)C(=O)N[C@@H](CC)C(=O)N[C@H](C)C(=O)N(C)[C@@H](CC(C)C)C(=O)N(C)[C@@H](CC(C)C)C(=O)N(C)[C@@H](C(C)C)C(=O)N1C` [C100] (cyclo([Abu][Sar][NMeY]V[NMeL][Abu][dA][NMeL][NMeL][NMeV][MeBmt])), the “% inhibition of CsA binding” value in assay [4] is listed as 95.72%.

As for `COC1CC(/C=C(C)/C=C(\C)C2CC(O)C/C=C(C)/C=C/C(=O)C/C=C/CC(C)C3OC(O)(CC(=O)N4CCCCC4C(=O)O2)C(C)CC3C)C=CC1O` (centres unmarked) [F16], the values for the IC50 in assay [1] and in assay [2] were greater than 1 µM and 0.0675 µM, respectively. In assay [3], the affinity, expressed as Kd, was 0.29 µM.

Take `CC[C@H](Cc1ccccc1)[C@@H]1CCCCCC(=O)[C@@H](C)[C@H](O)[C@@H](C)[C@@H]2CC[C@@H](C)[C@@](O)(O2)C(=O)C(=O)N2CCCC[C@H]2C(=O)O1` [F24, (S)-1-(2-((2R,3R,6S)-6-((2R,3R,4S,6E,9E,11R,12R)-12-benzyl-3,11-dihydroxy-4-methyl-5-oxotetradeca-6,9-dien-2-yl)-2-hydroxy-3-methyltetrahydro-2H-pyran-2-yl)-2-oxoacetyl)piperidine-2-carboxylic acid C-11 lactone]: the IC50 in assay [2] (read-out: Binding affinity to FKBP12 (by displacement of FK506)) came out at 0.00021 µM.

For the compound `CCC(/C=C(\C)C(O)CCC(C)/C=C/C(O)C(C)C1CCC(C)C(O)(C(=O)C(=O)N2CCCCC2C(=O)O)O1)C/C(C)=C/C1=CC(OC)C(O)C=C1` (centres unmarked) [F15], in assay [2], the IC50 came to 1.93 µM.

`COC1CC(/C=C(C)/C=C(\C)C2CC(O)C/C=C(C)/C=C/C(O)C/C=C/CC(C)C3OC(O)(CC(=O)N4CCCCC4C(=O)O2)C(C)CC3C)C=CC1O` (centres unmarked) [F13]: the results for the IC50 in assay [1] and in assay [2] were greater than 1 µM and 0.0336 µM, respectively. The compound also displayed a Kd in assay [3] of 0.106 µM.

With `C/C=C/C[C@@H](C)[C@@H](O)[C@H]1C(=O)N[C@@H](CC)C(=O)N(C)CC(=O)N(C)[C@@H](CCC)C(=O)N[C@@H](C(C)C)C(=O)N(C)[C@@H](CC(C)C)C(=O)N[C@@H](CC)C(=O)N[C@H](C)C(=O)N(C)[C@@H](CC(C)C)C(=O)N(C)[C@@H](CC(C)C)C(=O)N(C)[C@@H](C(C)C)C(=O)N1C` [C102] (cyclo([Abu][Sar][NMeNva]V[NMeL][Abu][dA][NMeL][NMeL][NMeV][MeBmt])), the “% inhibition of CsA binding” value in assay [4] worked out at 99.30%.

Turning to `CCC1/C=C(\C)C(O)CCC(C)/C=C/C(O)C(C)C2CCC(C)C(O)(O2)C(=O)C(=O)N2CCCCC2C(=O)OC2C=CC(=CC2O)/C=C(\C)C1` (centres unmarked) [F10], the IC50 in assay [1] was greater than 1 µM; in assay [2] it was 0.0211 µM. In assay [3], this compound had a dissociation constant (Kd) of 0.0172 µM.

As for `C/C1=C\C2=CC(O)C(C=C2)OC(=O)C2CCCCN2C(=O)C(=O)C2(O)OC(CCC2C)C(C)C(O)/C=C/C(C)CCC(O)/C(C)=C/C(C)C1` (centres unmarked) [F12], the values for the IC50 in assay [1] and in assay [2] were greater than 1 µM and 0.0363 µM, respectively. The compound further registered a Kd in assay [3] of 0.0212 µM.

Regarding `C/C=C/C[C@@H](C)[C@@H](O)[C@H]1C(=O)N[C@@H](CC)C(=O)N(C)CC(=O)N(C)[C@H](C)C(=O)N[C@@H](C(C)C)C(=O)N(C)CC(=O)N[C@@H](C)C(=O)N[C@H](C)C(=O)N(C)[C@@H](CC(C)C)C(=O)N(C)[C@@H](CC(C)C)C(=O)N(C)[C@@H](C(C)C)C(=O)N1C` [C27] (cyclo([MeBmt][Abu][Sar][dNMeA]V[Sar]A[dA][NMeL][NMeL][NMeV])), in assay [4], the “% inhibition of CsA binding” value is reported as 94.73%.

On to `COC1C(O)CCC(CC(C)C2CCC/C=C/C/C(C)=C/CC3OC(O)(C(=O)C(=O)N4CCCCC4C(=O)O2)C(C)CC3C)C1O` (centres unmarked) [F9], for which the IC50 in assay [1] is less than 1 µM; in assay [2], 0.0003 µM. Besides, in assay [3], binding was characterised by a dissociation constant (Kd) of 0.00023 µM.

As for `CC[C@H](Cc1cccc(O)c1)[C@@H]1/C=C/C=C/CC[C@@H](C)[C@H](O)[C@@H](C)[C@@H]2CC[C@@H](C)[C@@](O)(O2)C(=O)C(=O)N2CCCC[C@H]2C(=O)O1` [F21], in assay [1], the IC50 was less than 1 µM.

As for `C/C=C/C[C@@H](C)[C@@H](O)[C@H]1C(=O)N[C@@H](CC)C(=O)N(C)CC(=O)N(C)[C@H](C)C(=O)N[C@@H](C(C)C)C(=O)N(C)[C@@H](C)C(=O)N[C@@H](CC(C)C)C(=O)N[C@H](C)C(=O)N(C)[C@@H](CC(C)C)C(=O)N(C)[C@@H](CC(C)C)C(=O)N(C)[C@@H](C(C)C)C(=O)N1C` [C83] (cyclo([MeBmt][Abu][Sar][dNMeA]V[NMeA]L[dA][NMeL][NMeL][NMeV])), in assay [4], the “% inhibition of CsA binding” value is recorded as 99.35%.
